Where two headings read alike, the source gives them in different places.
Target: T1, yeast α-glucosidase (Saccharomyces cerevisiae, UniProt P53341)
T1 construct: purchased Sigma Aldrich
Assay: biochemical
Conditions: for inhibition at 50 µM: read-out: Inhibition at 50 μM (%), 50 μM
Protocol: Berberrubine derivatives will be assayed for yeast α-glucosidase inhibitory activity. The protocol described by Ramadhan et al. will be used[37]. Briefly, yeast α-glucosidase (0.1 U/mL) and substrate (1 mM p-nitrophenyl-α-D-glucopyranoside) were dissolved in 0.1 M phosphate buffer (pH 6.9). A 10 μL test sample was pre-incubated with α-glucosidase (40 μL) at 37 °C for 10 min. A substrate solution (50 μL) was then added to the reaction mixture and incubated at 37 °C for an additional 20 min, and terminated by adding 1 M Na2CO3 solution (100 μL). […] The percentage inhibition of activity was calculated as follows: % Inhibition = [(A0 − A1)/A0] × 100, where: A0 is the absorbance without the sample; A1 is the absorbance with the sample. The IC50 value was deduced from the plot of % inhibition versus the concentration of the test sample.

T1 sequence (P53341 whole entry): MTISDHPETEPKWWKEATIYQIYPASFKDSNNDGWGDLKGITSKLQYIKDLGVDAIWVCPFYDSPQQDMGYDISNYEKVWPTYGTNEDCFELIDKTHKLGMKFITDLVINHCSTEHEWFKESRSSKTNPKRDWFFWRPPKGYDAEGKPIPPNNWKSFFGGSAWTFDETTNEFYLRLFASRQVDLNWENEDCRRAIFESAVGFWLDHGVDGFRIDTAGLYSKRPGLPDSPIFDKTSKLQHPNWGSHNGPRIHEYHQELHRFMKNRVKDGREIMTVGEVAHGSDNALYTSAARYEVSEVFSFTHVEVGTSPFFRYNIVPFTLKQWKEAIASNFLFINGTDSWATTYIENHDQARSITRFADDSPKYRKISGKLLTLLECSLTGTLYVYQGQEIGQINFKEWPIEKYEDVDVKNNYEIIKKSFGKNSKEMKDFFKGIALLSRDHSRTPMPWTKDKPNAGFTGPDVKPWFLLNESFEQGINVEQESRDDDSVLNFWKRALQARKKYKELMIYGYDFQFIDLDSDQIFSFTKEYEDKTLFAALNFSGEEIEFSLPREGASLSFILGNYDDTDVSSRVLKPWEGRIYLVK

For `COc1ccc2cc3[n+](cc2c1O)CCc1cc2c(cc1-3)OCO2` [BBRB, 9-hydroxy-10-methoxy-5,6-dihydro-[1,3]dioxolo[4,5-g]isoquinolino[3,2-a]isoquinolin-7-ium chloride, reference compound], the inhibition at 50 µM was less than 0%.
With `COc1ccc2cc3[n+](cc2c1OC(=O)c1ccccc1)CCc1cc2c(cc1-3)OCO2.[Cl-]` [Compound 1, 9-(benzoyloxy)-10-methoxy-5,6-dihydro-[1,3]dioxolo[4,5-g]isoquinolino[3,2-a]isoquinolin-7-ium chloride] the IC50 was 25.3 ± 2.63 µM, the “Inhibition at 50 μM (%)” value (50 μM) was 57.67% and the inhibition at 50 µM was 58%.
Work on `COc1ccccc1C(=O)Oc1c(OC)ccc2cc3[n+](cc12)CCc1cc2c(cc1-3)OCO2` [Compound 2, 10-methoxy-9-((2-methoxybenzoyl)oxy)-5,6-dihydro-[1,3]dioxolo[4,5-g]isoquinolino[3,2-a]isoquinolin-7-ium chloride] yielded an IC50 of 19.5 ± 1.62 µM and an inhibition at 50 µM of 79.1%.
In the case of `COc1cccc(C(=O)Oc2c(OC)ccc3cc4[n+](cc23)CCc2cc3c(cc2-4)OCO3)c1` [Compound 3, 10-methoxy-9-((3-methoxybenzoyl)oxy)-5,6-dihydro-[1,3]dioxolo[4,5-g]isoquinolino[3,2-a]isoquinolin-7-ium chloride], the IC50 is reported as 11.6 ± 1.19 µM and the inhibition at 50 µM is reported as 89.7%.
For `COc1ccc(C(=O)Oc2c(OC)ccc3cc4[n+](cc23)CCc2cc3c(cc2-4)OCO3)cc1` [Compound 4, 10-methoxy-9-((4-methoxybenzoyl)oxy)-5,6-dihydro-[1,3]dioxolo[4,5-g]isoquinolino[3,2-a]isoquinolin-7-ium chloride], the IC50 was 18.4 ± 1.31 µM and the inhibition at 50 µM was 80%.
`COc1ccc2cc3[n+](cc2c1OC(=O)c1cccc(O)c1)CCc1cc2c(cc1-3)OCO2` [Compound 5, 9-((3-hydroxybenzoyl)oxy)-10-methoxy-5,6-dihydro-[1,3]dioxolo[4,5-g]isoquinolino[3,2-a]isoquinolin-7-ium chloride] showed an IC50 (read-out: IC50) of 7.51 ± 0.42 µM and an inhibition at 50 µM of 98.1%.
With `COc1ccc(C(=O)Oc2c(OC)ccc3cc4[n+](cc23)CCc2cc3c(cc2-4)OCO3)cc1OC` [Compound 6, 9-((3,4-dimethoxybenzoyl)oxy)-10-methoxy-5,6-dihydro-[1,3]dioxolo[4,5-g]isoquinolino[3,2-a]isoquinolin-7-ium chloride] the IC50 was 19.1 ± 1.01 µM and the inhibition at 50 µM was 73.9%.
`COc1ccc2cc3[n+](cc2c1OC(=O)c1ccc2c(c1)OCO2)CCc1cc2c(cc1-3)OCO2` [Compound 7, 9-((benzo[d][1,3]dioxole-5-carbonyl)oxy)-10-methoxy-5,6-dihydro-[1,3]dioxolo[4,5-g]isoquinolino[3,2-a]isoquinolin-7-ium chloride] showed an IC50 (read-out: IC50) of 6.44 ± 0.5 µM and an inhibition at 50 µM of 99.7%.
`COc1cc(C(=O)Oc2c(OC)ccc3cc4[n+](cc23)CCc2cc3c(cc2-4)OCO3)cc(OC)c1OC` [Compound 8, 10-methoxy-9-((3,4,5-trimethoxybenzoyl)oxy)-5,6-dihydro-[1,3]dioxolo[4,5-g]isoquinolino[3,2-a]isoquinolin-7-ium chloride] was tested, and the IC50 was 23.9 ± 1.87 µM and the inhibition at 50 µM was 72%.
Molecule `COc1ccc2cc3[n+](cc2c1OC(=O)c1ccccc1Cl)CCc1cc2c(cc1-3)OCO2` [Compound 10, 9-((2-chlorobenzoyl)oxy)-10-methoxy-5,6-dihydro-[1,3]dioxolo[4,5-g]isoquinolino[3,2-a]isoquinolin-7-ium chloride] has an IC50 of 12.2 ± 0.82 µM and an inhibition at 50 µM of 88.5%.
For `COc1ccc2cc3[n+](cc2c1OC(=O)c1cccc(Cl)c1)CCc1cc2c(cc1-3)OCO2` [Compound 11, 9-((3-chlorobenzoyl)oxy)-10-methoxy-5,6-dihydro-[1,3]dioxolo[4,5-g]isoquinolino[3,2-a]isoquinolin-7-ium chloride], the IC50 (read-out: IC50) was 9.43 ± 0.8 µM and the inhibition at 50 µM was 95.5%.
`COc1ccc2cc3[n+](cc2c1OC(=O)c1ccc(Cl)cc1)CCc1cc2c(cc1-3)OCO2` [Compound 12, 9-((4-chlorobenzoyl)oxy)-10-methoxy-5,6-dihydro-[1,3]dioxolo[4,5-g]isoquinolino[3,2-a]isoquinolin-7-ium chloride] gave an IC50 of 10.6 ± 0.6 µM and an inhibition at 50 µM of 96.5%.

From PMC10620162, “Structure—yeast α-glucosidase inhibitory activity relationship of 9-O-berberrubine carboxylates” (Scientific Reports, 2023)
